Assay results taken from patent publication US8202904B2, “α-cyano-4-fluoro-3-phenoxybenzyl meta-halo pyrethrate, a process for preparing the same and the uses thereof” (East China Normal University, priority 2007, dated 2012).
Converted amounts (≈) assume the structure as drawn.

How the values were obtained:
Musca domestica = experiment: Striking down effect on Musca domestica, liquid film contact method; format: in vivo; parameters: unit not given here; conditions: Musca domestica adults, film from 1 ml of 0.1% liquor in acetone in 500 ml conical flask
Experimental: The striking down effect on Musca domestica was tested using Compounds 2 and 3, which are representative examples of the compound of formula (I) of the present invention, Compound 9 as a control example. Musca domestica, an in-house cultured sensitive strain, the adult insects in eclosion for 3-5 days were used, and the male and female insects are half and half. Test temperature: 26±1° C., humidity: 70±10%, test method: liquid film contact method. 1 ml of 0.1% liquor in acetone was evenly coated on a 500 ml conical flask to form a film. After the film was dry, 20˜25 adult insects were put into the flask, and the striking down time and striking down number were observed, and each treatment was done in triplicate.

Aphis medicaginis kock = experiment: Killing effect on aphids, immersion; format: in vivo; conditions: Aphis medicaginis, 24 h, read-out: The average mortality
Experimental: The killing effect on aphids was tested using Compound 2 and 3, which are representative examples of the compound of formula (I) of the present invention, Compound 9 as a control example. Aphis medicaginis kock; test temperature: 26±1° C., humidity: 70±10%; test method: immersion; adult insects together with bean sprouts were immersed in a liquor in dimethyl sulfoxide for 5 seconds, after which the bean sprouts were heeled in a solid support. Each treatment was done in triplicate. The number of the killed insects was checked after 24 hours to calculate the mortality.

[1] = test system: Tetrangychus cinnabarinus; experiment: Killing effect on Tetrangychus cinnabarinus, immersion; format: in vivo; conditions: after 24 hours
Experimental: The killing effect on acarids was tested using Compound 2 and 3, which are representative examples of the compound of formula (I) of the present invention, Compound 9 as a control example. Tetrangychus cinnabarinus, test temperature: 26±1° C. humidity: 70±10%; test method: immersion; adult insects together with horsebean leaves were immersed in a liquor in dimethyl sulfoxide for 5 seconds, after which the leaves were inserted into a small bottle. Each treatment was done in triplicate. The number of the killed insects was checked after 24 hours to calculate the mortality.

[2] = Acute toxicity on rats by oral administration; conditions: rat, in vivo
Blattela germanica = experiment: Striking down effect on cockroaches, liquid film contact method; format: in vivo; parameters: unit not given here; conditions: Blattela germanica male adults, film at 54 mg/m^2, 22±1° C.
Experimental: The striking down effect on Blattela germanica was tested using Compound 2 and 3, which are representative examples of the compound of formula (I) of the present invention, Compound 9 as a control example. Blattela germanica, an in-house cultured sensitive strain, male adult insects were used. Test temperature: 22±1° C., test method: liquid film contact method. A liquor in acetone was evenly coated at the amount of 54 mg/m^2 on the inner wall of a wild mouth bottle to form a film. After the film was dry, 10 adult insects were put into each bottle, and the striking down time and striking down number were observed, and each treatment was done in triplicate.

[3] = test system: Culex pipiens pallens fourth instar wiggler; experiment: Killing effect on wiggler, WHO immersing method, LC50; format: in vivo
Experimental: The following pyrethrates were tested as representatives according to the method recommended by the World Health Organization (WHO) (Zongbing ZHANG, the assay of toxicity of insecticides, the Science Press, 1988), the commonly used testing breed, Culex pipiens pallens fourth instar wiggler is used as a subject for biological assay, test temperature: 26±1° C., humidity: 70±10%; immersing method: a solution of a certain amount the compound to be tested in acetone was mixed evenly with pure water in the gradually decreasing concentration of 500, 250, 100, 50, 25, 12.5, 6.25, 3.125, 1, 0.5, 0.25, 0.1, 0.05, 0.025, 0.01, 0.005, 0.0025, 0.0001 mg/L, and the mortality of wiggler after 24 hours was calculated and LC50 was calculated to preliminarily evaluate the insecticidal activity. The results were shown in Table I. Compound 1-5 are representative examples of the compound of formula (I) of the present invention: the compounds involved in preparation Example 1-5 were prepared;
At the same time, their relative toxicities were compared with those of Cypermethrin, and Deltamethrin.

Mythimna separata = experiment: Killing effect on Mythimna separata, dipped corn leaves fed to larvae; format: in vivo; conditions: 48 h, read-out: The average mortality
Experimental: The killing effect on Mythimna separata was tested using Compounds 2 and 3, which are representative examples of the compound of formula (I) of the present invention, Compound 9, polyfluorobenzyl meta-halo pyrethrate, which has the highest insecticidal activity to Mythimna separata as a control example.
Mythimna separata: test temperature: 26±1° C., humidity: 70±10%; the corn leaves was immersed, and then were taken out after they were dipped in a liquor in dimethyl sulfoxide for 5 seconds. The liquor was dried in the shade and the corn leaves were cut away to feed larvae at the beginning of the third instar. Each treatment was done in triplicate. The number of killed insects was counted after 48 hours to calculate the mortality.

[4] = Stability test, ultraviolet lamp irradiation, gas chromatography analysis; format: physicochemical; conditions: 30 min, 3 mM
Experimental: 0.15 mmol of the compound of Preparation Example 2 (cis-α-cyano-3-phenoxy-4-fluoro-benzyl-2,2-dimethyl-3-(2-chlorovinyl)cyclopropane carboxylate) and 0.15 mmol of the corresponding dichloride compound (cis-α-cyano-3-phenoxy-4-fluoro-benzyl-2,2-dimethyl-3-(2,2-dichlorovinyl)cyclopropane carboxylate) were added to two vessels separately, to which 50 ml of cyclohexane were added separately. They were irradiated by a 500 W ultraviolet lamp for 30 min respectively. Then to each of the vessels were added 0.15 mmol of n-hexane as an internal standard for gas chromatography analysis. […] The photodegradation rate of the former is 1.9 times of that of the latter. That is to say, if the same amounts were used, the residue of the former in the environment is lower than that of the latter.

SMILES: CC1(C)[C@H](C=CCl)[C@@H]1C(=O)OC(C#N)c1ccc(F)c(Oc2ccccc2)c1 (relative stereo) [Compound 2, cis-α-cyano-3-phenoxy-4-fluoro-benzyl-2,2-dimethyl-3-(2-chlorovinyl)cyclopropane carboxylate]
- KT50 (Musca domestica): 3.49
- mortality at 0.25 ppm (Aphis medicaginis kock): 0%
- mortality at 0.5 ppm (Aphis medicaginis kock): 28.8%
- mortality at 1 ppm (Aphis medicaginis kock): 84.3%
- mortality at 5 ppm (Aphis medicaginis kock): 89.5%
- mortality at 50 ppm (Aphis medicaginis kock): 100%
- mortality at 500 ppm (Aphis medicaginis kock): 100%
- The average mortality ([1]; 1 mg/L): 0%
- The average mortality ([1]; 5 mg/L): 11.9%
- The average mortality ([1]; 50 mg/L): 91.1%
- The average mortality ([1]; 500 mg/L): 100%
- LD50 ([2]; female): 158 mg/kg
- LD50 ([2]; male): 116 mg/kg
- KT50 (Blattela germanica): 5.12
- relative toxicity versus cypermethrin ([3]; Culex pipiens pallen larvae): 22.55 times
- relative toxicity versus deltamethrin ([3]; Culex pipiens pallen larvae): 2.55 times
- relative toxicity versus the compounds in comparative examples 1-6 ([3]; Culex pipiens pallen larvae): 125-1128 times
- LC50 ([3]; Culex pipiens, 24 h): 0.47 ng/mL (≈ 1.18 nM)
- relative toxicity versus deltamethrin, estimated for the single chiral isomer ([3]; extrapolated 4*2.55 from the racemate of four chiral isomers): 10 times
- Relative toxicity ([3]; from wiggler LC50, Cypermethrin = 100): 2255
- mortality at 0.25 ppm (Mythimna separata): 0%
- mortality at 0.5 ppm (Mythimna separata): 33.3%
- mortality at 1 ppm (Mythimna separata): 66.7%
- mortality at 5 ppm (Mythimna separata): 100%
- mortality at 50 ppm (Mythimna separata): 100%
- mortality at 500 ppm (Mythimna separata): 100%
- degraded by light [4]: 30%
- photodegradation rate relative to the corresponding dichloride compound [4]: 1.9 times
